These results are taken from PubChem BioAssay AID248 (DTP/NCI, 2004).

Values joined by “and” are separate entries in the source; they are usually repeats but may differ in a detail not shown here. Equal entries are not always repeated. Inconclusive results and toxic doses are left out.

This experiment concerns L1210 leukemia ip in BDF1 mice, survival T/C. The experiment in a line: NCI In Vivo Anticancer Drug Screen. Data for tumor model L1210 Leukemia (intraperitoneal) in B6D2F1 (BDF1) mice. Conditions: endpoint: mean survival time, higher = longer survival. Summed up: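 Ratio derived from survival: compound-dosed mice over vehicle-dosed mice, all bearing a transplantable tumor.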

The mark [1] stands for this setting: dose: 100.0 mg/kg/injection, schedule: Q04DX002 (ip), vehicle: Klucel (hydroxypropylcellulose) (HPC).
[2] abbreviates: dose: 200.0 mg/kg/injection, schedule: Q04DX002 (ip), vehicle: Klucel (hydroxypropylcellulose) (HPC).
Where [3] appears, read: dose: 400.0 mg/kg/injection, schedule: Q04DX002 (ip), vehicle: Klucel (hydroxypropylcellulose) (HPC).
[4] abbreviates: dose: 25.0 mg/kg/injection, schedule: Q04DX003 (ip), vehicle: Klucel (hydroxypropylcellulose) (HPC).
Where [5] appears, read: dose: 50.0 mg/kg/injection, schedule: Q04DX003 (ip), vehicle: Klucel (hydroxypropylcellulose) (HPC).
The mark [6] stands for this setting: dose: 100.0 mg/kg/injection, schedule: Q04DX003 (ip), vehicle: Klucel (hydroxypropylcellulose) (HPC).
The mark [7] stands for this setting: dose: 100.0 mg/kg/injection, schedule: Q04DX002 (ip), vehicle: saline with Tween-80.
The mark [8] stands for this setting: dose: 200.0 mg/kg/injection, schedule: Q04DX002 (ip), vehicle: saline with Tween-80.
Where [9] appears, read: dose: 400.0 mg/kg/injection, schedule: Q04DX002 (ip), vehicle: saline with Tween-80.
Setting [10] is: dose: 100.0 mg/kg/injection, schedule: Q01DX001 (ip), vehicle: saline with Tween-80.
The mark [11] stands for this setting: dose: 200.0 mg/kg/injection, schedule: Q01DX001 (ip), vehicle: saline with Tween-80.
The mark [12] stands for this setting: dose: 400.0 mg/kg/injection, schedule: Q01DX001 (ip), vehicle: saline with Tween-80.
The mark [13] stands for this setting: dose: 100.0 mg/kg/injection, schedule: Q01DX009 (ip), vehicle: Klucel (hydroxypropylcellulose) (HPC).
The mark [14] stands for this setting: dose: 200.0 mg/kg/injection, schedule: Q01DX009 (ip), vehicle: Klucel (hydroxypropylcellulose) (HPC).
[15] abbreviates: dose: 400.0 mg/kg/injection, schedule: Q01DX009 (ip), vehicle: Klucel (hydroxypropylcellulose) (HPC).
The mark [16] stands for this setting: dose: 100.0 mg/kg/injection, schedule: Q01DX001 (ip), vehicle: carboxymethylcellulose (CMC).
[17] abbreviates: dose: 200.0 mg/kg/injection, schedule: Q04DX003 (ip), vehicle: Klucel (hydroxypropylcellulose) (HPC).
The mark [18] stands for this setting: dose: 400.0 mg/kg/injection, schedule: Q04DX003 (ip), vehicle: Klucel (hydroxypropylcellulose) (HPC).
Setting [19] is: dose: 25.0 mg/kg/injection, schedule: Q01DX009 (ip), vehicle: saline.
[20] abbreviates: dose: 50.0 mg/kg/injection, schedule: Q01DX009 (ip), vehicle: saline.
Setting [21] is: dose: 100.0 mg/kg/injection, schedule: Q01DX009 (ip), vehicle: saline.

For `Cc1cccc2ccccc12`, the T/C under setting [1] was 107 % of control, the T/C under setting [2] is 107 % of control and the T/C under setting [3] was 107 % of control.
`ClCc1ccc(CCl)c(Cl)c1`: the T/C under setting [4] is 86 % of control, the T/C under setting [5] is 97 % of control and the T/C under setting [6] was 94 % of control.
Consider `O=C(NC(=S)c1cccc2ccccc12)Nc1ccc(Cl)cc1`, for which the T/C was 97 % of control under setting [7], 89 % of control under setting [8] and 89 % of control under setting [9].
`N#CCC[N+]1([O-])CCCCC1C(=O)O` (configuration not stated): the T/C is, setting by setting: (dose: 100.0 mg/kg/injection, schedule: Q01DX001 (ip), vehicle: saline) 98 % of control; (dose: 200.0 mg/kg/injection, schedule: Q01DX001 (ip), vehicle: saline) 98 % of control.
Turning to `COC(=O)c1ccccc1NC(OC)c1cccc([N+](=O)[O-])c1` (configuration not stated), the T/C was 90 % of control under setting [10]; 93 % of control and 89 % of control under setting [7]; 92 % of control (dose: 100.0 mg/kg/injection, schedule: Q04DX003 (ip), vehicle: saline with Tween-80); 92 % of control under setting [11]; 86 % of control and 90 % of control under setting [8]; 92 % of control (dose: 200.0 mg/kg/injection, schedule: Q04DX003 (ip), vehicle: saline with Tween-80). Moreover, the T/C is 87 % of control under setting [12]; 87 % of control under setting [9]; 89 % of control (dose: 400.0 mg/kg/injection, schedule: Q04DX003 (ip), vehicle: saline with Tween-80).
Regarding `OC1(c2cccc(C(F)(F)F)c2)CCN(C2CC2)CC1`, the T/C is, setting by setting: (dose: 12.5 mg/kg/injection, schedule: Q04DX003 (ip), vehicle: Klucel (hydroxypropylcellulose) (HPC)) 104 % of control; under setting [4], 105 % of control; under setting [5], 100 % of control.
As for `CSc1ccc(OC(=O)Nc2ccc(Cl)cc2Cl)cc1C`, the T/C runs as follows: under setting [13], 95 % of control; under setting [14], 98 % of control; under setting [15], 95 % of control.
Turning to `CN(C)Cc1c(CC(O)(c2ccccc2)c2ccccc2)ccc2ccccc12`, the T/C is, setting by setting: (dose: 50.0 mg/kg/injection, schedule: Q01DX001 (ip), vehicle: carboxymethylcellulose (CMC)) 96 % of control; under setting [16], 100 % of control; (dose: 200.0 mg/kg/injection, schedule: Q01DX001 (ip), vehicle: carboxymethylcellulose (CMC)) 96 % of control; (dose: 400.0 mg/kg/injection, schedule: Q01DX001 (ip), vehicle: carboxymethylcellulose (CMC)) 105 % of control.
As to `CC(O)(c1ccccc1)C(C)(O)c1ccccc1` (configuration not stated), the T/C is 114 % of control (dose: 50.0 mg/kg/injection, schedule: Q04DX002 (ip), vehicle: saline with Tween-80); 96 % of control under setting [7]; 93 % of control under setting [8].
Turning to `Cc1ccccc1SCC(N)=O`, the T/C is, setting by setting: under setting [6], 91 % of control; under setting [17], 98 % of control; under setting [18], 107 % of control.
For `CC/C(=C(\CC)c1ccc(OCCN(CC)CC)cc1)c1ccc(OCCN(CC)CC)cc1`, the T/C reads like this: (dose: 5.0 mg/kg/injection, schedule: Q01DX001 (ip), vehicle: carboxymethylcellulose (CMC)) 94 % of control; (dose: 10.0 mg/kg/injection, schedule: Q01DX001 (ip), vehicle: carboxymethylcellulose (CMC)) 96 % of control; (dose: 40.0 mg/kg/injection, schedule: Q01DX001 (ip), vehicle: carboxymethylcellulose (CMC)) 94 % of control; under setting [16], 106 % of control.
With `CC1(C)COC(Cc2ccccc2)=N1`, the T/C was 98 % of control under setting [19]; 104 % of control under setting [20]; 96 % of control (dose: 50.0 mg/kg/injection, schedule: Q04DX003 (ip), vehicle: saline); 102 % of control under setting [21]; 94 % of control (dose: 100.0 mg/kg/injection, schedule: Q04DX003 (ip), vehicle: saline); 101 % of control (dose: 200.0 mg/kg/injection, schedule: Q01DX009 (ip), vehicle: saline). Besides, the T/C (dose: 200.0 mg/kg/injection, schedule: Q04DX003 (ip), vehicle: saline) was 91 % of control.
Consider `Nc1ccc([N+](=O)[O-])cc1Cl`, for which the T/C by setting is: under setting [1], 122 % of control; under setting [2], 105 % of control; under setting [3], 97 % of control.
On to `CN(CCOS(C)(=O)=O)CCOS(C)(=O)=O`, for which the T/C is, setting by setting: (dose: 0.1 mg/kg/injection, schedule: Q01DX009 (ip), vehicle: saline) 123 % of control; (dose: 0.17 mg/kg/injection, schedule: Q01DX009 (ip), vehicle: saline) 118 % of control; (dose: 0.2 mg/kg/injection, schedule: Q01DX009 (ip), vehicle: saline) 161 % of control; (dose: 0.26 mg/kg/injection, schedule: Q01DX009 (ip), vehicle: saline) 122 % of control; (dose: 0.28 mg/kg/injection, schedule: Q01DX001 (ip), vehicle: saline) 110 % of control; (dose: 0.4 mg/kg/injection, schedule: Q01DX001 (ip), vehicle: saline) 115 % of control. Further, the T/C (dose: 0.4 mg/kg/injection, schedule: Q01DX009 (ip), vehicle: saline) is 183 % of control; the T/C (dose: 0.44 mg/kg/injection, schedule: Q01DX001 (ip), vehicle: saline) is 121 % of control; the T/C (dose: 0.66 mg/kg/injection, schedule: Q01DX009 (ip), vehicle: saline) is 101 % of control; the T/C (dose: 0.8 mg/kg/injection, schedule: Q01DX009 (ip), vehicle: saline) is 163 % of control; the T/C (dose: 1.0 mg/kg/injection, schedule: Q01DX009 (ip), vehicle: saline) is 109 % of control; the T/C (dose: 1.5 mg/kg/injection, schedule: Q01DX009 (ip), vehicle: saline) is 88 % of control. The T/C was 92 % of control (dose: 1.6 mg/kg/injection, schedule: Q01DX009 (ip), vehicle: saline); 156 % of control (dose: 2.25 mg/kg/injection, schedule: Q01DX001 (ip), vehicle: saline); 104 % of control (dose: 4.5 mg/kg/injection, schedule: Q01DX001 (ip), vehicle: saline); 113 % of control (dose: 38.0 micrograms/kg/injection, schedule: Q01DX009 (ip), vehicle: saline); 123 % of control (dose: 58.0 micrograms/kg/injection, schedule: Q01DX009 (ip), vehicle: saline); 115 % of control (dose: 88.0 micrograms/kg/injection, schedule: Q01DX009 (ip), vehicle: saline). Moreover, the T/C (dose: 132.0 micrograms/kg/injection, schedule: Q01DX009 (ip), vehicle: saline) was 151 % of control and the T/C (dose: 200.0 micrograms/kg/injection, schedule: Q01DX009 (ip), vehicle: saline) was 90 % of control.
As for `NC(CSS(=O)(=O)O)=NCCc1c[nH]c(=S)[nH]1`, the T/C reads like this: (dose: 12.5 mg/kg/injection, schedule: Q04DX002 (ip), vehicle: Klucel (hydroxypropylcellulose) (HPC)) 107 % of control; (dose: 25.0 mg/kg/injection, schedule: Q04DX002 (ip), vehicle: Klucel (hydroxypropylcellulose) (HPC)) 91 % of control.
For the molecule `CCOC(=O)c1nc[nH]c1C`, the T/C under setting [13] is 103 % of control; the T/C under setting [1] is 98 % of control and 101 % of control; the T/C under setting [6] was 103 % of control; the T/C under setting [14] was 100 % of control and 120 % of control; the T/C under setting [2] is 100 % of control and 103 % of control; the T/C under setting [17] was 103 % of control. Moreover, the T/C is, setting by setting: under setting [15], 103 % of control and 119 % of control; under setting [3], 103 % of control; under setting [18], 98 % of control.
Turning to `O=CC(O)C(O)C(O)C(O)COP(=O)(O)O` (configuration not stated), the T/C reads like this: under setting [19], 102 % of control; under setting [20], 93 % of control; under setting [21], 88 % of control.
On to `CCCCCCCCP(=O)(CCCCCC)CCCCCC`, for which the T/C is, setting by setting: under setting [10], 97 % of control; under setting [11], 101 % of control; under setting [12], 111 % of control.
